Assay results from US9518061B2, “Substituted pyrazolylpyrazole derivative and use of same as herbicide” (KYOYU AGRI CO., LTD., priority 2013, dated 2016).

Tests used:
Type in all cases: in vivo
Echinochloa crus-galli = assay: Paddy herbicidal activity test; details: irrigated paddy pot, treated at 3.5 leaf stage of Echinochloa crus-galli, 30 days
Experimental: (§1) 1. Paddy Herbicidal Activity Test
(§2) Rice paddy soil was filled into a 1/10000 are pot followed by the addition of suitable amounts of water and chemical fertilizer, kneading, seeding with Echinochloa crus-galli, Monochoria vaginalis and Scirpus juncoides and maintaining in an irrigated state at a water depth of 3 cm.
(§3) Wettable powder of Target Compound (I) shown in Table 1 prepared in compliance with the preparation examples were diluted with a suitable amount of water, rice plants in the 2.0 leaf stage were transplanted during 3.5 leaf stage of Echinochloa crus-galli, and treated by dropping in chemical in the prescribed amount per are using a pipette.
(§4) After treating for 30 days in a glass greenhouse at an average atmospheric temperature of 30° C., the herbicidal efficacy thereof was investigated.
(§5) Evaluation of herbicidal efficacy was carried out by comparing growth inhibition rate (%) with an untreated group, while evaluation of phytotoxicity was carried out by comparing growth inhibition rate (%) with the state of a complete eradication group, and were evaluated at 11 levels indicated below.

Monochoria vaginalis = assay: Paddy herbicidal activity test; details: irrigated paddy pot, 30 days
Experimental: as §1, §2, §3, §4, §5

Scirpus juncoides = assay: Paddy herbicidal activity test; details: irrigated paddy pot, 30 days
Experimental: as §1, §2, §3, §4, §5

Rice plants = assay: Paddy herbicidal activity test, phytotoxicity to transplanted rice; details: rice transplanted in 2.0 leaf stage, 30 days
Experimental: as §1, §2, §3, §4, §5

Amaranthus retroflexus [1] = assay: Farming soil treatment test; details: soil surface spray prior to weed growth, 30 days
Experimental: (§6) 2. Farming Soil Treatment Test
(§7) Field soil was filled into a 1/6000 are pot followed by seeding with Digitaria ciliaris, Chenopodium album and Amaranthus retroflexus and covering with soil.
(§8) Wettable powder of compounds of formula (D shown in Table 1 prepared in compliance with the preparation examples were diluted with water to the prescribed amount of chemical and uniformly sprayed onto each soil surface layer using 10 liters of sprayed water per are prior to weed growth following seeding.
as §4
(§9) Evaluation of herbicidal efficacy was carried out in the same manner as the above-mentioned Test Example 1.

Chenopodium album [2] = assay: Farming soil treatment test; details: soil surface spray prior to weed growth, 30 days
Experimental: as §6, §7, §8, §4, §9

Digitaria ciliaris [3] = assay: Farming soil treatment test; details: soil surface spray prior to weed growth, 30 days
Experimental: as §6, §7, §8, §4, §9

Amaranthus retroflexus [4] = assay: Weed foliar treatment test; details: foliar spray, 3 weeks
Experimental: (§10) 3. Weed Foliar Treatment Test
(§11) Soil was filled into a 1/6000 are pot followed by seeding with Digitaria ciliaris, Chenopodium album and Amaranthus retroflexus, covering with soil, and cultivating in a glass greenhouse at an average atmospheric temperature of 25° C.
(§12) Wettable powder of Target Compound (I) shown in Table 1 prepared in compliance with the preparation examples were diluted with water to the prescribed amount of chemical and uniformly sprayed onto the weeds using 15 liters of sprayed water per are when Digitaria ciliaris had grown to the 1.0 to 2.0 leaf stage.
(§13) After treating for 3 weeks in a glass greenhouse at an average atmospheric temperature of 25° C., the herbicidal efficacy thereof was investigated.
as §9

Chenopodium album [5] = assay: Weed foliar treatment test; details: foliar spray, 3 weeks
Experimental: as §10, §11, §12, §13, §9

Digitaria ciliaris [6] = assay: Weed foliar treatment test; details: foliar spray at 1.0 to 2.0 leaf stage of Digitaria ciliaris, 3 weeks
Experimental: as §10, §11, §12, §13, §9

Row | SMILES | herbicidal efficacy (growth inhibition rate level) Echinochloa crus-galli (Echinochloa crus-galli; 1g a.i./10a) | herbicidal efficacy (growth inhibition rate level) Echinochloa crus-galli (Echinochloa crus-galli; 5g a.i./10a) | herbicidal efficacy (growth inhibition rate level) Monochoria vaginalis (Monochoria vaginalis; 1g a.i./10a) | herbicidal efficacy (growth inhibition rate level) Monochoria vaginalis (Monochoria vaginalis; 5g a.i./10a) | herbicidal efficacy (growth inhibition rate level) Scirpus juncoides (Scirpus juncoides; 1g a.i./10a) | herbicidal efficacy (growth inhibition rate level) Scirpus juncoides (Scirpus juncoides; 5g a.i./10a) | phytotoxicity (growth inhibition rate level) Rice plants (Rice plants; 1g a.i./10a) | phytotoxicity (growth inhibition rate level) Rice plants (Rice plants; 5g a.i./10a) | herbicidal efficacy (growth inhibition rate level) Amaranthus retroflexus (Amaranthus retroflexus [1]; 5g a.i./10a) | herbicidal efficacy (growth inhibition rate level) Amaranthus retroflexus (Amaranthus retroflexus [1]; 10g a.i./10a) | herbicidal efficacy (growth inhibition rate level) Chenopodium album (Chenopodium album [2]; 5g a.i./10a) | herbicidal efficacy (growth inhibition rate level) Chenopodium album (Chenopodium album [2]; 10g a.i./10a) | herbicidal efficacy (growth inhibition rate level) Digitaria ciliaris (Digitaria ciliaris [3]; 5g a.i./10a) | herbicidal efficacy (growth inhibition rate level) Digitaria ciliaris (Digitaria ciliaris [3]; 10g a.i./10a) | herbicidal efficacy (growth inhibition rate level) Amaranthus retroflexus (Amaranthus retroflexus [4]; 5g a.i./10a) | herbicidal efficacy (growth inhibition rate level) Amaranthus retroflexus (Amaranthus retroflexus [4]; 10g a.i./10a) | herbicidal efficacy (growth inhibition rate level) Chenopodium album (Chenopodium album [5]; 5g a.i./10a) | herbicidal efficacy (growth inhibition rate level) Chenopodium album (Chenopodium album [5]; 10g a.i./10a) | herbicidal efficacy (growth inhibition rate level) Digitaria ciliaris (Digitaria ciliaris [6]; 5g a.i./10a) | herbicidal efficacy (growth inhibition rate level) Digitaria ciliaris (Digitaria ciliaris [6]; 10g a.i./10a)
1 | N#Cc1cnn(-c2nn3c(c2Br)CCCC3)c1N(CCCl)C(=O)C(F)(F)F [Compound 16] | 9 (90% to less than 100%) | 10 (100%) | 7 (70% to less than 80%) | 8 (80% to less than 90%) | 8 (80% to less than 90%) | 9 (90% to less than 100%) | 0 (0 (exponent): 0% to less than 10% (growth inhibition rate)) | 1 (10% to less than 20%) | 10 (100%) | 10 (100%) | 10 (100%) | 10 (100%) | 10 (100%) | 10 (100%) | 10 (100%) | 10 (100%) | 10 (100%) | 10 (100%) | 10 (100%) | 10 (100%)
2 | COCCN(C(=O)C(F)(F)F)c1c([N+](=O)[O-])cnn1-c1nn2c(c1Cl)CCCC2 [Compound 20] | 9 (90% to less than 100%) | 10 (100%) | 9 (90% to less than 100%) | 9 (90% to less than 100%) | 9 (90% to less than 100%) | 10 (100%) | 1 (10% to less than 20%) | 1 (10% to less than 20%) | 10 (100%) | 10 (100%) | 10 (100%) | 10 (100%) | 10 (100%) | 10 (100%) | 10 (100%) | 10 (100%) | 10 (100%) | 10 (100%) | 10 (100%) | 10 (100%)
3 | COCCNc1c(C#N)cnn1-c1nn2c(c1Cl)CCCC2 [Control agent 4.63] | 2 (20% to less than 30%) | 3 (30% to less than 40%) | 1 (10% to less than 20%) | 2 (20% to less than 30%) | 1 (10% to less than 20%) | 2 (20% to less than 30%) | 0 (0 (exponent): 0% to less than 10% (growth inhibition rate)) | 1 (10% to less than 20%) | 4 (40% to less than 50%) | 5 (50% to less than 60%) | 4 (40% to less than 50%) | 5 (50% to less than 60%) | 3 (30% to less than 40%) | 3 (30% to less than 40%) | 3 (30% to less than 40%) | 6 (60% to less than 70%) | 3 (30% to less than 40%) | 5 (50% to less than 60%) | 2 (20% to less than 30%) | 4 (40% to less than 50%)
4 | N#Cc1cnn(-c2nn3c(c2Cl)CCCC3)c1NCCCl [Control agent 4.92] | 1 (10% to less than 20%) | 2 (20% to less than 30%) | 0 (0 (exponent): 0% to less than 10% (growth inhibition rate)) | 1 (10% to less than 20%) | 2 (20% to less than 30%) | 4 (40% to less than 50%) | 0 (0 (exponent): 0% to less than 10% (growth inhibition rate)) | 1 (10% to less than 20%) | 3 (30% to less than 40%) | 4 (40% to less than 50%) | 4 (40% to less than 50%) | 5 (50% to less than 60%) | 2 (20% to less than 30%) | 3 (30% to less than 40%) | 4 (40% to less than 50%) | 5 (50% to less than 60%) | 3 (30% to less than 40%) | 6 (60% to less than 70%) | 4 (40% to less than 50%) | 5 (50% to less than 60%)
5 | N#Cc1cnn(-c2nn3c(c2Cl)CCCC3)c1NC(=O)C(F)(F)F [Control agent 4.185] | 2 (20% to less than 30%) | 4 (40% to less than 50%) | 0 (0 (exponent): 0% to less than 10% (growth inhibition rate)) | 0 (0 (exponent): 0% to less than 10% (growth inhibition rate)) | 5 (50% to less than 60%) | 6 (60% to less than 70%) | 2 (20% to less than 30%) | 2 (20% to less than 30%) | 5 (50% to less than 60%) | 6 (60% to less than 70%) | 4 (40% to less than 50%) | 5 (50% to less than 60%) | 3 (30% to less than 40%) | 5 (50% to less than 60%) | 6 (60% to less than 70%) | 6 (60% to less than 70%) | 5 (50% to less than 60%) | 6 (60% to less than 70%) | 4 (40% to less than 50%) | 6 (60% to less than 70%)
